Measurements reported in PubChem BioAssay AID1963969 (Molecular Pharmacology Branch, DTP, NCI, 2024).

Tested on: 817829-284-R-J1-PDC multi-cell spheroid viability
Test: Anticancer human tumor 817829-284-R-J1-PDC patient-derived colon adenocarcinoma cell line growth inhibition [PI3K]
Settings: for IC50: curve of first compound; for viability, T/C: stronger effect = lower value
Source text: Combinatorial screen of targeted agents with the PI3K inhibitors inavolisib, alpelisib, duvelisib, and copanlisib in multi-cell type tumor spheroids
A high-throughput screen of multi-cell type tumor spheroids was designed to identify active combinations of targeted small molecules and PI3K pathway inhibitors. Complex spheroids include a stromal component modeled by human endothelial cells (HUVEC) and fibroblasts modeled by human mesenchymal stem cells (MSCs). The concentration ranges selected for each drug and investigational agent were based upon clinically achievable concentrations if the clinical Cmax of the agent was known.
Compounds. The drugs and investigational agents: inavolisib (NSC800729), alpelisib (NSC765974), duvelisib (NSC772469), copanlisib (NSC816437), ipatasertib (NSC767898), afuresertib (NSC778305), talazoparib (NSC767125), sapanisertib (NSC764658), selumetinib (NSC741078), tovorafenib (DAY101, NSC766906), vemurafenib (NSC761431), ravoxertinib (NSC781343), sotorasib (NSC818433), MRTX1133 (NSC 836407), abemaciclib (NSC 768073), palbociclib (NSC758247), venetoclax (NSC 766270), SY5609 (NSC837396), enzalutamide (NSC755605), and darolutamide (NSC825331), were obtained from the National Cancer Institute (NCI) Developmental Therapeutics Program Chemical Repository. The FDA-approved anticancer drug set is available from the NCI Developmental Therapeutics Program. […] The stock solutions were prepared in dimethyl sulfoxide (DMSO, Sigma-Aldrich, St. Louis, MO, cat. D2650) at 800-fold the tested concentration and stored at -70 degrees C prior to their use. All drugs and investigational agents were tested over a range starting from a high concentration at or near the clinical Cmax and decreasing in half-log increments. If the clinical Cmax for an agent had not been determined, the highest concentration tested was 10 microM.
Cell Culture. All cells were maintained in an incubator at 37 degrees C and 5% CO2 with 95% humidity. The PDC lines were cultured according to standard operating procedures established by the NCI PDMR (https://pdmr.cancer.gov/sops/default.htm). All PDCs were thawed and cultured in Matrigel-coated flasks prepared with a working solution of 1X Ham's F-12 nutrient mix, without supplementation (Invitrogen, Waltham, MA, cat. 11765054), 100 U/mL penicillin-streptomycin (Invitrogen, cat. 15140122), and 2.5% Matrigel (Corning Inc., Corning, NY, cat. 354248) for the first three passages. The 354836-022-R-J1-PDC, 475296-252-R-J1-PDC, and 997726-040-R-J2-PDC lines were cultured in 6A media, which includes advanced DMEM/F-12 (Thermo Fisher Scientific, cat. 12634028), 10 mM HEPES (Thermo Fisher Scientific, cat. 15630080), 1X GlutaMAX supplement (Thermo Fisher Scientific, cat. 35050061), 0.1 mg/mL primocin (InvivoGen, San Diego, CA, cat. ant-pm-2), 10% defined fetal bovine serum, heat inactivated (HyClone Laboratories Inc., Logan, UT, cat. SH30070.03HI), 50% L-WRN conditioned media (ATCC, cat. CRL-3276), 1.25 mM N-Acetyl-L-cysteine (Sigma-Aldrich, cat. A9165), 10 mM nicotinamide (Sigma-Aldrich, cat. N0636), 1X B-27 supplement (Thermo Fisher Scientific, cat. 17504044), 1X N-2 supplement (Thermo Fisher Scientific, cat. 17502048), and 10 microM Y-27632 dihydrochloride (Tocris Bioscience, Bristol, United Kingdom, cat. 1254). The 624824-186-R-J2-PDC line was cultured in 6C/Colon 1B media, which includes all 6A media components plus 50 ng/mL human EGF recombinant protein (Thermo Fisher Scientific, cat. PHG0311). […]

[1] = second compound 0.00316 µM, first compound 0.0316 µM
[2] = second compound 0.00316 µM, first compound 0.1 µM
[3] = second compound 0.00316 µM, first compound 0.316 µM
[4] = second compound 0.00316 µM, first compound 1 µM
[5] = second compound 0.00316 µM, first compound 3.16 µM
[6] = second compound 0.00316 µM, first compound 10 µM
[7] = second compound 0.01 µM, first compound 0.0316 µM
[8] = second compound 0.01 µM, first compound 0.1 µM
[9] = second compound 0.01 µM, first compound 0.316 µM
[10] = second compound 0.01 µM, first compound 1 µM
[11] = second compound 0.01 µM, first compound 3.16 µM
[12] = second compound 0.01 µM, first compound 10 µM
[13] = second compound 0.0316 µM, first compound 0.0316 µM
[14] = second compound 0.0316 µM, first compound 0.1 µM
[15] = second compound 0.0316 µM, first compound 0.316 µM
[16] = second compound 0.0316 µM, first compound 1 µM
[17] = second compound 0.0316 µM, first compound 3.16 µM
[18] = second compound 0.0316 µM, first compound 10 µM
[19] = second compound 0.1 µM, first compound 0.0316 µM
[20] = second compound 0.1 µM, first compound 0.1 µM
[21] = second compound 0.1 µM, first compound 0.316 µM
[22] = second compound 0.1 µM, first compound 1 µM
[23] = second compound 0.1 µM, first compound 3.16 µM
[24] = second compound 0.1 µM, first compound 10 µM
[25] = second compound 0.316 µM, first compound 0.0316 µM
[26] = second compound 0.316 µM, first compound 0.1 µM
[27] = second compound 0.316 µM, first compound 0.316 µM
[28] = second compound 0.316 µM, first compound 1 µM
[29] = second compound 0.316 µM, first compound 3.16 µM
[30] = second compound 0.316 µM, first compound 10 µM
[31] = second compound 1 µM, first compound 0.0316 µM
[32] = second compound 1 µM, first compound 0.1 µM
[33] = second compound 1 µM, first compound 0.316 µM
[34] = second compound 1 µM, first compound 1 µM
[35] = second compound 1 µM, first compound 3.16 µM
[36] = second compound 1 µM, first compound 10 µM
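Note: spheroids exposed to agents for seven days before readout.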
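Throughout, for viability, T/C: percent of vehicle DMSO control viability which is 100%.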

With `C=CC(=O)N1CCN(c2nc(=O)n(-c3c(C)ccnc3C(C)C)c3nc(-c4c(O)cccc4F)c(F)cc23)C(C)C1` (centres undefined) + CC(Nc1ccc2c(c1)OCCn1cc(N3C(=O)OCC3C(F)F)nc1-2)C(N)=O the IC50 (second compound 0.00316 µM) was > 10 µM, the IC50 (second compound 0.01 µM) was > 10 µM and the IC50 (second compound 0.0316 µM) was > 10 µM. For the same compound, the IC50 (second compound 0.1 µM) was 6.65 µM, the IC50 (second compound 0.316 µM) was > 10 µM and the IC50 (second compound 1 µM) was > 10 µM. It also gave a viability, T/C [1] of 91.4%, a viability, T/C [2] of 93.3% and a viability, T/C [3] of 82.9%. The viability, T/C [4] was 71.9%, the viability, T/C [5] was 77.9% and the viability, T/C [6] was 55.4%. It also gave a viability, T/C [7] of 62.7%, a viability, T/C [8] of 57.7% and a viability, T/C [9] of 83.9%. It also gave a viability, T/C [10] of 78.6%, a viability, T/C [11] of 84.8% and a viability, T/C [12] of 38.9%. It also gave a viability, T/C [13] of 53.8%, a viability, T/C [14] of 112% and a viability, T/C [15] of 108%. For the same compound, the viability, T/C [16] was 51.1%, the viability, T/C [17] was 64% and the viability, T/C [18] was 73.7%. For the same compound, the viability, T/C [19] was 64.7%, the viability, T/C [20] was 92.2% and the viability, T/C [21] was 79.2%. For the same compound, the viability, T/C [22] was 84.2%, the viability, T/C [23] was 78.9% and the viability, T/C [24] was 34.1%. The viability, T/C [25] was 60.1%, the viability, T/C [26] was 75.9% and the viability, T/C [27] was 67.4%. For the same compound, the viability, T/C [28] was 52.6%, the viability, T/C [29] was 68% and the viability, T/C [30] was 44.6%. The viability, T/C [31] was 61.6%, the viability, T/C [32] was 53.9% and the viability, T/C [33] was 79.3%. It also gave a viability, T/C [34] of 57.3%, a viability, T/C [35] of 62.7% and a viability, T/C [36] of 53.5%.

In the case of `CC(Cn1ccc(-c2ccc(C#N)c(Cl)c2)n1)NC(=O)c1cc(C(C)O)[nH]n1` (centres undefined) + CC(Nc1ccc2c(c1)OCCn1cc(N3C(=O)OCC3C(F)F)nc1-2)C(N)=O, the IC50 (second compound 0.00316 µM) is reported as > 10 µM, the IC50 (second compound 0.01 µM) is reported as 8.89 µM and the IC50 (second compound 0.0316 µM) is reported as > 10 µM. For the same compound, the IC50 (second compound 0.1 µM) was > 10 µM, the IC50 (second compound 0.316 µM) was > 10 µM and the IC50 (second compound 1 µM) was > 10 µM. For the same compound, the viability, T/C [1] was 91.8%, the viability, T/C [2] was 127% and the viability, T/C [3] was 99%. It also gave a viability, T/C [4] of 96.2%, a viability, T/C [5] of 94.4% and a viability, T/C [6] of 53.1%. For the same compound, the viability, T/C [7] was 140%, the viability, T/C [8] was 86.2% and the viability, T/C [9] was 86.4%. For the same compound, the viability, T/C [10] was 70.8%, the viability, T/C [11] was 63.5% and the viability, T/C [12] was 57.4%. For the same compound, the viability, T/C [13] was 67.4%, the viability, T/C [14] was 96.8% and the viability, T/C [15] was 78%. It also gave a viability, T/C [16] of 78.6%, a viability, T/C [17] of 74.1% and a viability, T/C [18] of 59.9%. For the same compound, the viability, T/C [19] was 81.5%, the viability, T/C [20] was 114% and the viability, T/C [21] was 62.3%. For the same compound, the viability, T/C [22] was 117%, the viability, T/C [23] was 79.5% and the viability, T/C [24] was 55.3%. It also gave a viability, T/C [25] of 77.1%, a viability, T/C [26] of 66.1% and a viability, T/C [27] of 76.8%. For the same compound, the viability, T/C [28] was 58.7%, the viability, T/C [29] was 110% and the viability, T/C [30] was 46.4%. For the same compound, the viability, T/C [31] was 75.5%, the viability, T/C [32] was 39% and the viability, T/C [33] was 65.6%. It also gave a viability, T/C [34] of 72.9%, a viability, T/C [35] of 60% and a viability, T/C [36] of 50.8%.
